Assay results taken from patent US20240287070A1, “FUSED HETEROCYCLIC DERIVATIVES” (Janssen Sciences Ireland Unlimited Company, priority 2021, published 2024).

What was measured:
[1] = Cytotoxicity, ATPlite Luminescence Assay; type: cell-based, human; details: human, HepG2 or HepG2.117 cells, 3-days incubation unless marked with *
Experimental: Cytotoxicity of the compounds was tested using HepG2 or HepG2.117 cells, incubated for 3 or 4 days in the presence of compounds. The viability of the cells was assessed using the PERKIN ELMER ATPlite Luminescence Assay System.”

[2] = Human liver microsome stability; type: in vitro ADME; details: 1 μM compound, NADPH 1 mM, 37° C., 0-60 min; for half-life at 1 μM: human, pooled human liver microsomes, pH 7.4, pooled human liver microsomes 0.5 mg/mL, read-out: HLM Metabolism t1/2
Experimental: Human Liver Microsome Stability t½ (Min) of Compounds of Formula (I) […] All incubations are performed singularly for each compound. NADPH was added to initiate the reaction with the final concentration of 1 mM and the final incubation volume of 400 μL. At 6 time points (0, 5, 10, 20, 40 and 60 min) reactions were stopped by the removal of 50 μL of the incubation mixture into plates containing acetonitrile at a of 1:3 (v:v). The plates were centrifuged at 3000 rpm for 10 min at 4° C. to precipitate the protein. Following protein precipitation, the sample supernatants were combined in cassettes of up to 8 compounds. The internal standard was added (1:1 supernatant to internal standard solution) and samples were analyzed using standard LC-MS conditions. From a plot of ln peak area ratio (compound peak area/internal standard peak area) against time, the gradient of the line is determined. Subsequently, half-life is calculated using the equations below: Elimination rate constant (k)=(−gradient) […]

[3] = system: HBV (HepG2.117 cell line, inducibly HBV producing); experiment: Anti-HBV activity, intracellular HBV DNA by real-time PCR in HepG2.117 cell line; type: cell-based, hepatitis B virus; details: HepG2.117 cells, 3 days of treatment
Experimental: The anti HBV activity was measured using the HepG2.117 cell line, a stable, inducibly HBV producing cell line, which replicates HBV in the absence of doxycycline (Tet-off system). The HepG2 cell line is available from ATCCR under number HB-8065. Transfection of the HepG2 cell line can be as described in Sun and Nassal 2006 Journal of Hepatology 45 (2006) 636-645 “Stable HepG2- and Huh7-based human hepatoma cell lines for efficient regulated expression of infectious hepatitis B virus”.
For the antiviral assay, HBV replication was induced, followed by a treatment with serially diluted compound in 96-well plates. After 3 days of treatment, the antiviral activity was determined by quantification of intracellular HBV DNA using real-time PCR and an HBV specific primer set and probe.

[4] = Hepatitis B virus, HepG2.117, 72 h

SMILES	CC50 at 3 days [1]	half-life at 1 μM [2]	EC50 [3, 4]	HLM Metabolism t1/2 ([2]; pooled human liver microsomes 0.5 mg/mL)	EC50 [3]
C[C@@H]1Cc2nn3c(c2CN1C(=O)c1ccc(Cl)c(C#N)c1)C(=O)N([C@@H](C)c1ccc(OC(F)F)cc1)CC3 [Ref 2, reference compound]	> 50 µM	0.63 h	0.03 µM	–	–
Cc1nnn(-c2ccc(C(C)N3C[C@@H](C)n4nc5c(c4C3=O)CN(C(=O)c3ccc(Cl)c(Cl)c3)[C@H](C)C5)cc2)n1 (single isomer, unassigned) [Compound 22A, (3R,7R)-2-(3,4-dichlorobenzoyl)-3,7-dimethyl-9-((R*)-1-(4-(5-methyl-2H-tetrazol-2-yl)phenyl)ethyl)-1,2,3,4,8,9-hexahydropyrido[4′,3′:3,4]pyrazolo[1,5-a]pyrazin-10(7H)-one]	> 50 µM	1.35 h	0.034 µM	–	–
CC(c1cnn(C)c(=O)c1)N1C[C@@H](C)n2nc3c(c2C1=O)CN(C(=O)c1ccc(Cl)c(C(F)(F)F)c1)[C@H](C)C3 (single isomer, unassigned) [Compound 52A, (3R,7R)-2-(4-chloro-3-(trifluoromethyl)benzoyl)-3,7-dimethyl-9-((R*)-1-(1-methyl-6-oxo-1,6-dihydropyridazin-4-yl)ethyl)-1,2,3,4,8,9-hexahydropyrido [4′,3′:3,4]pyrazolo[1,5-a]pyrazin-10(7H)-one]	> 50 µM	–	–	1.48 h	0.12 µM
CC(c1cnc(C(C)(C)O)cn1)N1C[C@@H](C)n2nc3c(c2C1=O)CN(C(=O)c1ccc(Cl)c(C(F)(F)F)c1)[C@H](C)C3 (single isomer, unassigned) [Compound 41A, (3R,7R)-2-(4-chloro-3-(trifluoromethyl)benzoyl)-9-((R*)-1-(5-(2-hydroxypropan-2-yl)pyrazin-2-yl)ethyl)-3,7-dimethyl-1,2,3,4,8,9-hexahydropyrido[4′,3′:3,4]pyrazolo[1,5-a]pyrazin-10(7H)-one]	> 50 µM	> 3 h	–	–	0.076 µM
CC(c1ccc(C#N)cc1)N1C[C@@H](C)n2nc3c(c2C1=O)CN(C(=O)c1ccc(Cl)c(Cl)c1)[C@H](C)C3 (single isomer, unassigned) [Compound 66A, 4-((R*)-1-((3R,7R)-2-(3,4-dichlorobenzoyl)-3,7-dimethyl-10-oxo-1,3,4,7,8,10-hexahydropyrido[4′,3′:3,4]pyrazolo[1,5-a]pyrazin-9(2H)-yl)ethyl)benzonitrile]	> 26.2 µM	> 3 h	–	–	0.037 µM
C[C@@H]1Cc2nn3c(c2CN1C(=O)c1ccc(Cl)c(C(F)(F)F)c1)C(=O)N([C@H](C)c1ccc([S@@](C)(=N)=O)cc1)C[C@H]3C (relative stereo) [Compound 19B, (3R,7R)-2-(4-chloro-3-(trifluoromethyl)benzoyl)-3,7-dimethyl-9-((R*)-1-(4-((S*)—S-methylsulfonimidoyl)phenyl)ethyl)-1,2,3,4,8,9-hexahydropyrido[4′,3′:3,4]pyrazolo[1,5-a]pyrazin-10(7H)-one]	> 50 µM	> 3 h	0.015 µM	–	–
CC(c1ccc(C(F)(F)F)nc1)N1C[C@@H](C)n2nc3c(c2C1=O)CN(C(=O)c1ccc(Cl)c(C#N)c1)[C@H](C)C3 (single isomer, unassigned) [Compound 12A, 2-Chloro-5-((3R,7R)-3,7-dimethyl-10-oxo-9-((R*)-1-(6-(trifluoromethyl)pyridin-3-yl)ethyl)-1,2,3,4,7,8,9,10-octahydropyrido[4′,3′:3,4]pyrazolo[1,5-a]pyrazine-2-carbonyl)benzonitrile]	> 50 µM	> 3 h	–	–	0.6 µM
C[C@@H]1Cc2nn3c(c2CN1C(=O)c1ccc(Cl)c(Cl)c1)C(=O)N([C@H](C)c1ccc(C#N)cc1)CC3 [Ref 4, reference compound]	> 50 µM	–	–	–	–
CC(c1ccccn1)N1CCn2nc3c(c2C1=O)CN(C(=O)c1ccc(Cl)c(Cl)c1)[C@H](C)C3 (mixture of isomers) [Ref 3, reference compound]	> 50 µM	–	–	–	–
C[C@@H]1Cc2nn3c(c2CN1C(=O)c1ccc(Cl)c(Cl)c1)C(=O)N([C@@H](C)c1ccc(C#N)cc1)CC3 [Ref 5, reference compound]	> 50 µM	–	–	–	–
